Laboratory results: BindingDB's records for doi:10.1007/s10822-022-00478-x (Roche Innovation Center Basel, F. Hoffmann-La Roche Ltd., 2022)

Target: cAMP and cAMP-inhibited cGMP 3',5'-cyclic phosphodiesterase 10A (Homo sapiens, UniProt Q9Y233)
Assay: PDE10A assay
Summary of the method: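 Human PDE10A (2 ng/well) preincubated 15 min RT with compound in HEPES pH 7.5, 10 mM MgCl2, BSA, then reacted 15 min with 50 nM [3H]cGMP/cGMP substrate. Stopped with Y-Si SPA beads; bound radioactivity counted, IC50 from four-parameter logistic, pIC50 = −log10(IC50).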

Compound	IC50
O=C(Nc1ccnn1CCO)c1nc(C2CC2)ccc1Nc1cncnc1 [Roche-Dataset for PDE10A, Compound 860]	0.049 µM
Cc1c(Cl)cc(Cl)c2nc(CCc3nn(C)cc3Cl)nn12 [Roche-Dataset for PDE10A, Compound 861]	0.333 µM
Cc1ccc(CNC(=O)c2cnn(C)c2C(=O)Nc2ccn3cc(-c4ccccc4)nc3n2)nc1 [Roche-Dataset for PDE10A, Compound 862]	0.322 µM
COCCn1ccc(NC(=O)c2nc(Cl)ccc2Nc2cncnc2)n1 [Roche-Dataset for PDE10A, Compound 864]	0.117 µM
COCCn1nccc1NC(=O)c1nc(C2CC2)ccc1Nc1cncnc1 [Roche-Dataset for PDE10A, Compound 868]	0.043 µM
CC(=O)c1cc(NC(=O)c2nc(C3CC3)cnc2Nc2cncnc2)ccc1F [Roche-Dataset for PDE10A, Compound 869]	0.00964 µM
CCCNC(=O)c1cc(NC(=O)c2c(C(=O)N3CCC3)cnn2C)nn1C [Roche-Dataset for PDE10A, Compound 871]	10 µM
O=C(Nc1cccc(OC(F)(F)F)c1)c1nc(C2CC2)cnc1Nc1cncnc1 [Roche-Dataset for PDE10A, Compound 874]	0.031 µM
CCC(=O)c1cc(NC(=O)c2nc(C3CC3)cnc2Nc2cncnc2)ccc1O [Roche-Dataset for PDE10A, Compound 875]	0.026 µM
CCOc1ccccc1C(=O)Nc1cc(-c2ccccn2)n[nH]1 [Roche-Dataset for PDE10A, Compound 876]	1.48 µM
O=C(Nc1cccc(N2CCCC2=O)c1)c1nc(C2CC2)cnc1Nc1cncnc1 [Roche-Dataset for PDE10A, Compound 878]	0.015 µM
O=C(NCC1CC1)c1cccc(NC(=O)c2nc(C3CC3)cnc2Nc2cncnc2)n1 [Roche-Dataset for PDE10A, Compound 880]	0.00965 µM
O=C1CCc2ccc(NC(=O)c3nc(C4CC4)cnc3Nc3cncnc3)cc21 [Roche-Dataset for PDE10A, Compound 881]	0.027 µM
CN(C)C(=O)Cn1ccc(NC(=O)c2nc(C3CC3)cnc2Nc2cncnc2)n1 [Roche-Dataset for PDE10A, Compound 882]	0.032 µM
Cn1ccc(NC(=O)c2nc(C3CC3)ccc2Nc2cncnc2)n1 [Roche-Dataset for PDE10A, Compound 883]	0.118 µM
Cc1noc(C(=O)Nc2cc(-c3ccccn3)nn2C)c1Br [Roche-Dataset for PDE10A, Compound 886]	6.22 µM
Cc1ncc(C)n2nc(CCc3nc(N4CCNC4=O)nn3C)nc12 [Roche-Dataset for PDE10A, Compound 887]	1.06 µM
CC(C)(O)CNC(=O)c1cccc(NC(=O)c2nc(C3CC3)cnc2Nc2cncnc2)n1 [Roche-Dataset for PDE10A, Compound 894]	0.00548 µM
O=C(Nc1ccn2nc(-c3ccccc3)nc2c1)c1ccc(Cl)nn1 [Roche-Dataset for PDE10A, Compound 897]	10 µM
Cc1cc(NC(=O)c2ccc3cc(-c4ccccc4)nn3c2)on1 [Roche-Dataset for PDE10A, Compound 898]	3.35 µM
CS(=O)(=O)Nc1cccc(NC(=O)c2nc(C3CC3)cnc2Nc2cncnc2)c1 [Roche-Dataset for PDE10A, Compound 900]	0.015 µM
O=C(NCCC1CCCCC1)c1nc(C2CC2)cnc1Nc1cncnc1 [Roche-Dataset for PDE10A, Compound 901]	1.41 µM

Compound	IC50
Cn1ncc(C(=O)N2CCC2)c1C(=O)Nc1cn(-c2cnccn2)cn1 [Roche-Dataset for PDE10A, Compound 906]	2.44 µM
COc1ccc2c(=O)n(C)c3c(C(C)C)nc(-c4ccccc4Cl)n3c2c1 [Roche-Dataset for PDE10A, Compound 908]	0.771 µM
Cc1ncc(C)n2nc(/C=C/c3nc(N4CCCN4C)nn3C)nc12 [Roche-Dataset for PDE10A, Compound 911]	0.747 µM
CCOC(=O)Cc1csc(NC(=O)c2nc(C3CC3)cnc2Nc2cncnc2)n1 [Roche-Dataset for PDE10A, Compound 914]	0.00499 µM
O=C(NCCC1CCOCC1)c1nc(C2CC2)cnc1Nc1cncnc1 [Roche-Dataset for PDE10A, Compound 915]	1.47 µM
CC(C)Oc1cccc(NC(=O)c2nc(C3CC3)cnc2Nc2cncnc2)n1 [Roche-Dataset for PDE10A, Compound 917]	0.024 µM
O=C(Nc1cccc(C(=O)N2CCOCC2)n1)c1nc(C2CC2)cnc1Nc1cncnc1 [Roche-Dataset for PDE10A, Compound 920]	0.00749 µM
COc1ncccc1C(=O)Nc1cc(-c2ccccn2)nn1C [Roche-Dataset for PDE10A, Compound 921]	9.73 µM
O=C(N[C@@H]1CCN(c2ccc(Cl)nn2)C1)c1nc(C2CC2)ccc1Nc1cncnc1 [Roche-Dataset for PDE10A, Compound 923]	0.012 µM
O=C(NCC1(c2ccccc2)CCOCC1)c1nc(C2CC2)cnc1Nc1cncnc1 [Roche-Dataset for PDE10A, Compound 924]	1.16 µM
CC(=O)Nc1nc2cc(NC(=O)c3nc(C)ccc3C)ccc2s1 [Roche-Dataset for PDE10A, Compound 926]	5.77 µM
CC(C)NC(=O)c1cccc(NC(=O)c2nc(C3CC3)cnc2Nc2cncnc2)n1 [Roche-Dataset for PDE10A, Compound 928]	0.0086 µM
O=C(Nc1ccc2cccnc2c1)c1nc(C2CC2)ccc1Nc1cncnc1 [Roche-Dataset for PDE10A, Compound 929]	0.00575 µM
O=C1CCc2c(NC(=O)c3nc(C4CC4)cnc3Nc3cncnc3)cccc21 [Roche-Dataset for PDE10A, Compound 932]	0.124 µM
Cn1cc(Br)c(C(=O)Nc2cc(-c3ccccn3)nn2C)n1 [Roche-Dataset for PDE10A, Compound 934]	0.811 µM
O=C(Nc1conc1-c1ccccc1)c1nc(C2CC2)ccc1Nc1cncnc1 [Roche-Dataset for PDE10A, Compound 935]	0.00691 µM
CCOC(=O)c1cnn(C)c1C(=O)Nc1ccn2nc(Br)nc2c1 [Roche-Dataset for PDE10A, Compound 936]	3.5 µM
O=C(c1nc(C2CC2)cnc1Nc1cncnc1)N1CCC(Cc2ccccc2)CC1 [Roche-Dataset for PDE10A, Compound 937]	10 µM
Cn1ncc(C(=O)N2CCOCC2)c1C(=O)N[C@H]1CCn2cc(-c3ccc(F)cc3)nc2C1 [Roche-Dataset for PDE10A, Compound 938]	0.624 µM
CC(C)C[C@H](CO)NC(=O)c1nc(C2CC2)cnc1Nc1cncnc1 [Roche-Dataset for PDE10A, Compound 939]	2.45 µM
Cc1ccc(Nc2cncc(O)n2)c(C(=O)Nc2ccn(C)n2)n1 [Roche-Dataset for PDE10A, Compound 940]	8.14 µM

Continued, values first:

IC50	Compound
10 µM	Cn1nc(NC(=O)c2c(C(=O)N3CCC3)cnn2C)cc1C(=O)N1CCCCC1 [Roche-Dataset for PDE10A, Compound 941]
0.00994 µM	O=C(Nc1cnc(Cl)cc1Cl)c1nc(C2CC2)ccc1Nc1cncnc1 [Roche-Dataset for PDE10A, Compound 942]
0.013 µM	COCCn1ncc(NC(=O)c2nc(C3CC3)ccc2Nc2cncnc2)c1C(=O)N(C)C [Roche-Dataset for PDE10A, Compound 944]
0.055 µM	O=C(Nc1ccc2nccnc2c1)c1nc(C2CC2)ccc1Nc1cncnc1 [Roche-Dataset for PDE10A, Compound 945]
2.54 µM	COCCNC(=O)c1nc(C2CC2)cnc1Nc1cncnc1 [Roche-Dataset for PDE10A, Compound 946]
0.967 µM	Cc1nc(-c2ccc(Cl)cc2)oc1C(=O)Nc1cc(-c2ccccn2)nn1C [Roche-Dataset for PDE10A, Compound 947]
0.027 µM	Cc1ccc2c(c1)c(=O)n(C)c1c(C)nc(-c3ccccc3Cl)n21 [Roche-Dataset for PDE10A, Compound 948]
0.01 µM	O=C(Nc1ccc(O)c2c1CCCC2=O)c1nc(C2CC2)cnc1Nc1cncnc1 [Roche-Dataset for PDE10A, Compound 949]
0.116 µM	Cn1ncc(C(=O)N2CCC2)c1C(=O)Nc1ccn(Cc2ccccc2)n1 [Roche-Dataset for PDE10A, Compound 950]
2.37 µM	Cc1nc2ccccc2nc1OCc1csc(N2CCOCC2)n1 [Roche-Dataset for PDE10A, Compound 951]
0.00764 µM	CC(=O)N1CC(C)(C)c2ccc(NC(=O)c3nc(C4CC4)cnc3Nc3cncnc3)cc21 [Roche-Dataset for PDE10A, Compound 952]
0.146 µM	Cc1ncc(C)n2nc(CCc3nc(C4CCCC4)nn3C)nc12 [Roche-Dataset for PDE10A, Compound 956]
0.019 µM	CC(=O)c1cccc(NC(=O)c2nc(C3CC3)cnc2Nc2cncnc2)c1 [Roche-Dataset for PDE10A, Compound 957]
1.29 µM	Cn1ncc(C(=O)N2CCC2)c1C(=O)Nc1cc(-c2ccccc2Cl)n[nH]1 [Roche-Dataset for PDE10A, Compound 958]
1.34 µM	CCOC(=O)c1cc(NC(=O)c2c(C(=O)N3CCC3)cnn2C)nn1C [Roche-Dataset for PDE10A, Compound 959]
2.67 µM	CCOC(=O)c1cnn(C)c1C(=O)Nc1cn(-c2ccccn2)cn1 [Roche-Dataset for PDE10A, Compound 960]
0.087 µM	Cc1ncc(C)n2nc(CCc3nc(-c4cn[nH]c4)nn3C)nc12 [Roche-Dataset for PDE10A, Compound 961]
0.016 µM	CCCc1cccc(NC(=O)c2nc(C3CC3)cnc2Nc2cncnc2)n1 [Roche-Dataset for PDE10A, Compound 963]
6.65 µM	Cc1ncc(C)n2nc(/C=C/c3nc(Br)cn3C3CC3)nc12 [Roche-Dataset for PDE10A, Compound 964]
0.0077 µM	COc1ccc2c(c1)c(=O)n(C)c1c(C)nc(-c3ccccc3Cl)n21 [Roche-Dataset for PDE10A, Compound 965]
0.568 µM	CCCCc1cc(NC(=O)c2c(C(=O)N3CCC3)cnn2C)nn1C1CCCC1 [Roche-Dataset for PDE10A, Compound 966]
0.015 µM	Cc1nc(-c2ccccc2Cl)n2c3ccc(Cl)cc3c(=O)n(C)c12 [Roche-Dataset for PDE10A, Compound 967]
